Data: patent US9211310B2, “Use of a Chinese medicine composition in preparing medicaments for treating secondary prevention of myocardial infarction” (TASLY PHARMACEUTICAL GROUP CO., LTD, priority 2010, dated 2015)

System: patients after acute myocardial infarction
Test: TCM symptom score, total and single (chest pain, chest tightness, short breath, fatigue, palpitation, spontaneous perspiration, pale complexion), same clinical trial
Type: in vivo, human
Conditions: for chest pain score 0, number of patients / chest pain score 0, percent of patients / chest pain score 3, number of patients / chest pain score 3, percent of patients / chest pain score 6, number of patients / chest pain score 6, percent of patients / chest pain score 9, number of patients / chest pain score 9, percent of patients / chest tightness score 0, number of patients / chest tightness score 0, percent of patients / chest tightness score 3, number of patients / chest tightness score 3, percent of patients / chest tightness score 6, number of patients / chest tightness score 6, percent of patients / chest tightness score 9, number of patients / chest tightness score 9, percent of patients: 1 month after treatment
Description: 3508 patients who were in accordance with the diagnostic standards of AMI for 28 days to 2 years and differentiated as Qi deficiency and blood stagnation syndrome by TCM were studied. 0.5 g Chinese medicine composition prepared by the method of EXAMPLE 1 (Coded as QSYQ) was administrated half an hour after meal, 3 times per day.
They included the overall survival time, angina pectoris score, TCM symptom score and life quality score, where angina pectoris score, TCM symptom score and life quality score were evaluated at randomization, in 1st, 3rd, 6th, 9th, 12th month after treatment and 18th month after follow-up.
The analysis method referred to the angina pectoris score.

[1] = 1 month after treatment-baseline, FAS
[2] = 1 month after treatment-baseline, PP
[3] = 3 months after treatment-baseline, FAS
[4] = 3 months after treatment-baseline, PP

CC(=O)Oc1ccccc1C(=O)O [Control group, aspirine]
change of chest pain score 0, number of patients [1]: 1344 | change of chest pain score 0, percent of patients [1]: (78.64%) | change of chest pain score 3, number of patients [1]: 226 | change of chest pain score 3, percent of patients [1]: (13.22%) | change of chest pain score 6, number of patients [1]: 60 | change of chest pain score 6, percent of patients [1]: (3.51%) | change of chest pain score 9, number of patients [1]: 4 | change of chest pain score 9, percent of patients [1]: (0.23%) | change of chest pain score −3, number of patients [1]: 59 | change of chest pain score −3, percent of patients [1]: (3.45%) | change of chest pain score −6, number of patients [1]: 16 | change of chest pain score −6, percent of patients [1]: (0.94%) | change of chest pain score −9, number of patients [1]: 0 | change of chest pain score −9, percent of patients [1]: (0.00%) | change of chest tightness score 0, number of patients [1]: 1302 | change of chest tightness score 0, percent of patients [1]: (76.18%) | change of chest tightness score 3, number of patients [1]: 298 | change of chest tightness score 3, percent of patients [1]: (17.44%) | change of chest tightness score 6, number of patients [1]: 21 | change of chest tightness score 6, percent of patients [1]: (1.23%) | change of chest tightness score 9, number of patients [1]: 5 | change of chest tightness score 9, percent of patients [1]: (0.29%) | change of chest tightness score −3, number of patients [1]: 76 | change of chest tightness score −3, percent of patients [1]: (4.45%) | change of chest tightness score −6, number of patients [1]: 7 | change of chest tightness score −6, percent of patients [1]: (0.41%) | change of chest pain score 0, number of patients [2]: 1146 | change of chest pain score 0, percent of patients [2]: (78.49%) | change of chest pain score 3, number of patients [2]: 197 | change of chest pain score 3, percent of patients [2]: (13.49%) | change of chest pain score 6, number of patients [2]: 52 | change of chest pain score 6, percent of patients [2]: (3.56%) | change of chest pain score 9, number of patients [2]: 3 | change of chest pain score 9, percent of patients [2]: (0.21%) | change of chest pain score −3, number of patients [2]: 50 | change of chest pain score −3, percent of patients [2]: (3.42%) | change of chest pain score −6, number of patients [2]: 12 | change of chest pain score −6, percent of patients [2]: (0.82%) | change of chest pain score −9, number of patients [2]: 0 | change of chest pain score −9, percent of patients [2]: (0.00%) | change of chest tightness score 0, number of patients [2]: 1110 | change of chest tightness score 0, percent of patients [2]: (76.03%) | change of chest tightness score 3, number of patients [2]: 259 | change of chest tightness score 3, percent of patients [2]: (17.74%) | change of chest tightness score 6, number of patients [2]: 19 | change of chest tightness score 6, percent of patients [2]: (1.30%) | change of chest tightness score 9, number of patients [2]: 4 | change of chest tightness score 9, percent of patients [2]: (0.27%) | change of chest tightness score −3, number of patients [2]: 62 | change of chest tightness score −3, percent of patients [2]: (4.25%) | change of chest tightness score −6, number of patients [2]: 6 | change of chest tightness score −6, percent of patients [2]: (0.41%) | chest pain score 0, number of patients (FAS): 608 | chest pain score 0, percent of patients (FAS): (35.41%) | chest pain score 3, number of patients (FAS): 635 | chest pain score 3, percent of patients (FAS): (36.98%) | chest pain score 6, number of patients (FAS): 461 | chest pain score 6, percent of patients (FAS): (26.85%) | chest pain score 9, number of patients (FAS): 13 | chest pain score 9, percent of patients (FAS): (0.76%) | chest tightness score 0, number of patients (FAS): 608 | chest tightness score 0, percent of patients (FAS): (35.41%) | chest tightness score 3, number of patients (FAS): 635 | chest tightness score 3, percent of patients (FAS): (36.98%) | chest tightness score 6, number of patients (FAS): 461 | chest tightness score 6, percent of patients (FAS): (26.85%) | chest tightness score 9, number of patients (FAS): 13 | chest tightness score 9, percent of patients (FAS): (0.76%) | chest pain score 0, number of patients (PP): 515 | chest pain score 0, percent of patients (PP): (35.13%) | chest pain score 3, number of patients (PP): 537 | chest pain score 3, percent of patients (PP): (36.63%) | chest pain score 6, number of patients (PP): 406 | chest pain score 6, percent of patients (PP): (27.69%) | chest pain score 9, number of patients (PP): 8 | chest pain score 9, percent of patients (PP): (0.55%) | chest tightness score 0, number of patients (PP): 515 | chest tightness score 0, percent of patients (PP): (35.13%) | chest tightness score 3, number of patients (PP): 537 | chest tightness score 3, percent of patients (PP): (36.63%) | chest tightness score 6, number of patients (PP): 406 | chest tightness score 6, percent of patients (PP): (27.69%) | chest tightness score 9, number of patients (PP): 8 | chest tightness score 9, percent of patients (PP): (0.55%) | change of chest pain score 0, number of patients [3]: 1203 | change of chest pain score 0, percent of patients [3]: (70.39%) | change of chest pain score 3, number of patients [3]: 325 | change of chest pain score 3, percent of patients [3]: (19.02%) | change of chest pain score 6, number of patients [3]: 76 | change of chest pain score 6, percent of patients [3]: (4.45%) | change of chest pain score 9, number of patients [3]: 6 | change of chest pain score 9, percent of patients [3]: (0.35%) | change of chest pain score −3, number of patients [3]: 79 | change of chest pain score −3, percent of patients [3]: (4.62%) | change of chest pain score −6, number of patients [3]: 20 | change of chest pain score −6, percent of patients [3]: (1.17%) | change of chest pain score −9, number of patients [3]: 0 | change of chest pain score −9, percent of patients [3]: (0.00%) | change of chest tightness score 0, number of patients [3]: 1190 | change of chest tightness score 0, percent of patients [3]: (69.63%) | change of chest tightness score 3, number of patients [3]: 383 | change of chest tightness score 3, percent of patients [3]: (22.41%) | change of chest tightness score 6, number of patients [3]: 37 | change of chest tightness score 6, percent of patients [3]: (2.17%) | change of chest tightness score 9, number of patients [3]: 5 | change of chest tightness score 9, percent of patients [3]: (0.29%) | change of chest tightness score −3, number of patients [3]: 85 | change of chest tightness score −3, percent of patients [3]: (4.97%) | change of chest tightness score −6, number of patients [3]: 8 | change of chest tightness score −6, percent of patients [3]: (0.47%) | change of chest tightness score −9, number of patients [3]: 1 | change of chest tightness score −9, percent of patients [3]: (0.06%) | change of chest pain score 0, number of patients [4]: 1019 | change of chest pain score 0, percent of patients [4]: (70.62%) | change of chest pain score 3, number of patients [4]: 279 | change of chest pain score 3, percent of patients [4]: (19.33%) | change of chest pain score 6, number of patients [4]: 63 | change of chest pain score 6, percent of patients [4]: (4.37%) | change of chest pain score 9, number of patients [4]: 4 | change of chest pain score 9, percent of patients [4]: (0.28%) | change of chest pain score −3, number of patients [4]: 64 | change of chest pain score −3, percent of patients [4]: (4.44%) | change of chest pain score −6, number of patients [4]: 14
